US20240307561A1, “RA[…] INHIBITOR CONJUGATES FOR CANCER TREATMENT” (DUKE UNIVERSITY, priority 2021, published 2024)
Where two headings read alike, the source gives them in different places.

Legend:
PIP cells = details: cited from earlier work
PARP-1 = PARP-1 (Homo sapiens, UniProt P09874); details: release of PARP-1 from DNA; cited from earlier work
PSMA^+ PIP cells [1] = test: Subcellular fractionation in PSMA+ PIP cells; assay type: cell-based; details: 1 h
Description: Subcellular fractionation of [^131I]PARP-PSMA combo agent 13 in PSMA+ PIP cells was determined using The Subcellular Protein Fractionation Kit for Cultured Cells (Number 78840) purchased from Thermo Scientific. PIP Cells (5 million) were incubated with […] of [^131I] 13 in 1.5 ml tubes with a final incubation volume of 500 μL. Stepwise separation and preparation of cytoplasmic, membrane, nuclear soluble, chromatin-bound and cytoskeletal protein extracts from PSMA^+ PIP cells were achieved by following the protocol provided by Thermo Scientific. The following groups of experiments were performed: • 1. ([^131I]PARP-PSMA combo agent 13. • 2. ([^131I]PARP-PSMA combo agent 13+2-PMPA blocking agent (680 μM) • 3. ([^131I]PARP-PSMA combo agent 13+Olaparib blocking agent (6.8 mM) • 4. ([^131I]PARP-PSMA combo agent 13+2-PMPA blocking agent (6.8 mM)+Olaparib blocking agent (6.8 mM)

PSMA^+ PIP cells [2] = test: PSMA-specific uptake and internalization in PIP cells; assay type: cell-based; details: for Total cell-associated activity (percentage of input dose): 37° C., 5×10^5 PIP cells
Description: PSMA-specific uptake and internalization of [^131I]PARP-PSMA combo agent 13 was determined by incubation with 5×10^5 PIP cells in triplicate in the absence or presence of 200 μM 2-PMPA at 37° C. for 0.25-2 h. After removing the unbound activity-containing medium, the cells were washed with 50 mM glycine, pH 2.8 and finally, cells were lysed with 1M NaOH. Radioactivity in the supernatants, glycine wash (membrane-bound) and lysate (internalized) fractions was counted and percentage of input dose calculated. […] Total cell-associated activity was 18.7±1.0%, 30.0±0.9%, 31.8±1.0 and 37.9±0.6% at 15, 30, 60, and 120 min, respectively.

[3] = + 2-PMPA (6.8 mM) + Olaparib (6.8 mM) blocking agents
[4] = + 2-PMPA blocking agent (680 μM)
[5] = + Olaparib blocking agent (6.8 mM)

Sequence of PARP-1 (P09874 whole entry): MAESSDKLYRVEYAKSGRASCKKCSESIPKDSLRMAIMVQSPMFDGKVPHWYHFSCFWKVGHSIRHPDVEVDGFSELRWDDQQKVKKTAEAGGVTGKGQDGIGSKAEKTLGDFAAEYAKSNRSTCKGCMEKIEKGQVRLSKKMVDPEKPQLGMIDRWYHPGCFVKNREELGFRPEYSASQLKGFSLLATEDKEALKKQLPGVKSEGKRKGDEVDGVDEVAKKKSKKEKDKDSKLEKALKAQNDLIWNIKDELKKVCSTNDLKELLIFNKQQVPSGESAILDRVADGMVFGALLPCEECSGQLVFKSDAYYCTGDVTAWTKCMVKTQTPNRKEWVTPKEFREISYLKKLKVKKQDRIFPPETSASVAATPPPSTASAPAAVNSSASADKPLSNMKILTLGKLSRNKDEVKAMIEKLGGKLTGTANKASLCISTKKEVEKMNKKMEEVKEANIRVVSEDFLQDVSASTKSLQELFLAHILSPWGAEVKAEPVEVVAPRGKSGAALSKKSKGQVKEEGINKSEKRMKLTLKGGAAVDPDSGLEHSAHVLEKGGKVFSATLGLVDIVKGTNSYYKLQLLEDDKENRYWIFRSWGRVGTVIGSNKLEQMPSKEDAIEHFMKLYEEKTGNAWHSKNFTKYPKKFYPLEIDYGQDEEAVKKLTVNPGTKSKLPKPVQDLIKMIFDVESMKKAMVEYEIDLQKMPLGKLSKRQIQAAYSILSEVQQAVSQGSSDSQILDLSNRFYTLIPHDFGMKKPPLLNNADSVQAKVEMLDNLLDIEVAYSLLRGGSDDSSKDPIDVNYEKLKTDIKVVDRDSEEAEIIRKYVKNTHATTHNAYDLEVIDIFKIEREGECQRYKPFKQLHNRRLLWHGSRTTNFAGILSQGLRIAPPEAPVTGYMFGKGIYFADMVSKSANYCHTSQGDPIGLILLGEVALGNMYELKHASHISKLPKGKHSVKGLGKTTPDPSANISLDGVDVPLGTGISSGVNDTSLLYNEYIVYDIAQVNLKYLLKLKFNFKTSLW

## O=C(O)CC[C@H](NC(=O)N[C@@H](CCCCNC(=O)c1ccc([131I])cc1)C(=O)O)C(=O)O [[^131I]DCIBzL]
PIP cells; 30 min
  Total cell-associated activity: 5.0±0.3%
PIP cells; 60 min
  Total cell-associated activity: 9.3±1.5%
PIP cells; 120 min
  Total cell-associated activity: 16.8±1.0%

## C[C@]1(c2nc3c(C(N)=O)cccc3[nH]2)CCCN1 [veliparib]
PARP-1
  dissociation rate constant (kd): 0.00408 s⁻¹

## O=C(O)CC[C@H](NC(=O)N[C@@H](CCCCNC(=O)CCOCCOCCOCCNC(=O)c1cc([131I])cc(C(=O)N2CCN(C(=O)c3cc(Cc4n[nH]c(=O)c5ccccc45)ccc3F)CC2)c1)C(=O)O)C(=O)O [[^131I]PARP-PSMA combo agent 13, (20S,24S)-1-(3-(4-(2-fluoro-5-((4-oxo-3,4-dihydrophthalazin-1-yl)methyl)benzoyl)piperazine-1-carbonyl)-5-[^131I]iodophenyl)-1,14,22-trioxo-5,8,11-trioxa-2,15,21,23-tetraazahexacosane-20,24,26-tricarboxylic Acid]
PSMA^+ PIP cells [1]; [3]
  Cells Left Over: 0.02%
  Cytoplasmic: 2.13%
  Cytoskeletal Protein: 0.02%
  Membrane: 1.44%
  Micrococcal Nuclease: 0.03%
  Nuclear Soluble: 0.14%
  Supernatant (Wash Out): 87.21%
  Total Cellular Uptake: 3.78%
PSMA^+ PIP cells [1]; [4]
  Cells Left Over: 0.06%
  Cytoplasmic: 1.47%
  Cytoskeletal Protein: 0.03%
  Membrane: 3.23%
  Micrococcal Nuclease: 0.09%
  Nuclear Soluble: 0.11%
  Supernatant (Wash Out): 86.85%
  Total Cellular Uptake: 4.99%
PSMA^+ PIP cells [1]; [5]
  Cells Left Over: 0.07%
  Cytoplasmic: 3.09%
  Cytoskeletal Protein: 0.15%
  Membrane: 9.00%
  Micrococcal Nuclease: 0.14%
  Nuclear Soluble: 1.01%
  Supernatant (Wash Out): 82.42%
  Total Cellular Uptake: 13.44%
PSMA^+ PIP cells [1]; no blocking agent
  Cells Left Over: 0.45%
  Cytoplasmic: 2.50%
  Cytoskeletal Protein: 0.28%
  Membrane: 20.70%
  Micrococcal Nuclease: 0.59%
  Nuclear Soluble: 2.17%
  Supernatant (Wash Out): 73.31%
  Total Cellular Uptake: 26.69%
PSMA^+ PIP cells [2]; 15 min
  Total cell-associated activity (percentage of input dose): 18.7±1.0%
PSMA^+ PIP cells [2]; 30 min
  Total cell-associated activity (percentage of input dose): 30.0±0.9%
PSMA^+ PIP cells [2]; 60 min
  Total cell-associated activity (percentage of input dose): 31.8±1.0%
PSMA^+ PIP cells [2]; 120 min
  Total cell-associated activity (percentage of input dose): 37.9±0.6%
PSMA^+ PIP cells [2]; presence of 200 μM 2-PMPA
  Uptake blocked by 2-PMPA: > 80%

## COC(=O)c1cnc(N2CCN(C(=O)c3ccc(-c4nc5c(C(N)=O)cccc5[nH]4)cc3)CC2)nc1 [UKTT15]
PARP-1
  dissociation rate constant (kd): 0.00185 s⁻¹
